Experimental data from patent publication US20240251792A1, “WEED CONTROL METHOD” (SYNGENTA CROP PROTECTION AG, priority 2021, published 2024).
Where two headings read alike, the source gives them in different places.

What was measured:
Format in all cases: in vivo
[1] = system: weeds and/or crops; experiment: Post-emergence biological efficacy (Table 4); conditions: 1000 g/ha, evaluated after 13 days; for pest or weed control at 1000 g/ha: 312 h
Experimental: (§1) Seeds of weeds and/or crops were sown in standard soil in pots. After cultivation for 14 days under controlled conditions in a glasshouse (at 24/19° C., day/night; 16 hours light), the plants were sprayed with an aqueous spray solution derived from the formulation of the technical active ingredient in a small amount of acetone and a special solvent and emulsifier mixture referred to as F50 (11.12% Emulsogen EL360 TM+44.44% N-methylpyrrolidone+44.44% Dowanol DPM glycol ether), to create a 50 g/l solution which was then diluted using 0.2% Genapol X080 as diluent to give the desired final dose of test compound.
(§2) The test plants were then grown under controlled conditions in the glasshouse (at 24/18° C., day/night; 15 hours light; 50% humidity) and watered twice daily. After 13 days the test was evaluated (100=total damage to plant; 0=no damage to plant).

[2] = system: ABUTH; experiment: Pre-emergence biological efficacy (Table 3); conditions: after 13 days; for pest or weed control at 1000 g/ha: Abutilon theophrasti, 312 h, read-out: evaluation (100=total damage to plant; 0=no damage to plant)
Experimental: as §1, with “one day” for “14 days”, “AMA” for “F50”
as §2

[3] = system: ECHCG; experiment: Pre-emergence biological efficacy (Table 3); conditions: Echinochloa crus-galli, 312 h, 1000 g/ha, after 13 days, read-out: evaluation (100=total damage to plant; 0=no damage to plant)
Experimental: as §1, with “one day” for “14 days”, “AMA” for “F50”
as §2

[4] = system: AMARE; experiment: Pre-emergence biological efficacy (Table 3); conditions: 1000 g/ha, after 13 days; for pest or weed control at 1000 g/ha: Amaranthus retroflexus, 312 h, read-out: evaluation (100=total damage to plant; 0=no damage to plant)
Experimental: as §1, with “one day” for “14 days”, “AMA” for “F50”
as §2

[5] = system: STEME; experiment: Pre-emergence biological efficacy (Table 3); conditions: after 13 days; for pest or weed control at 1000 g/ha: 312 h, read-out: evaluation (100=total damage to plant; 0=no damage to plant)
Experimental: as §1, with “one day” for “14 days”, “AMA” for “F50”
as §2

[6] = system: IPOHE; experiment: Pre-emergence biological efficacy (Table 3); conditions: 1000 g/ha, after 13 days; for pest or weed control at 1000 g/ha: Ipomoea hederacea, 312 h, read-out: evaluation (100=total damage to plant; 0=no damage to plant)
Experimental: as §1, with “one day” for “14 days”, “AMA” for “F50”
as §2

[7] = system: ZEAMX; experiment: Pre-emergence biological efficacy (Table 3); conditions: 1000 g/ha, after 13 days; for plant injury at 1000 g/ha: 312 h, read-out: evaluation (100=total damage to plant; 0=no damage to plant)
Experimental: as §1, with “one day” for “14 days”, “AMA” for “F50”
as §2

[8] = STEME, read-out: damage to plant STEME (100=total damage; 0=no damage)
[9] = ZEAMX, read-out: damage to plant ZEAMX (100=total damage; 0=no damage)
[10] = Abutilon theophrasti, ABUTH, read-out: damage to plant ABUTH (100=total damage; 0=no damage)
[11] = Amaranthus retroflexus, AMARE, read-out: damage to plant AMARE (100=total damage; 0=no damage)
[12] = Ipomoea hederacea, IPOHE, read-out: damage to plant IPOHE (100=total damage; 0=no damage)
[13] = Echinochloa crus-galli, ECHCG, read-out: damage to plant ECHCG (100=total damage; 0=no damage)

| Structure (SMILES) | pest or weed control at 1000 g/ha [1, 8] | pest or weed control at 1000 g/ha [1, 9] | pest or weed control at 1000 g/ha [1, 10] | pest or weed control at 1000 g/ha [1, 11] | pest or weed control at 1000 g/ha [1, 12] | pest or weed control at 1000 g/ha [2] | pest or weed control at 1000 g/ha [3] | pest or weed control at 1000 g/ha [4] | pest or weed control at 1000 g/ha [5] | pest or weed control at 1000 g/ha [6] | plant injury at 1000 g/ha [7] | pest or weed control at 1000 g/ha [1, 13] | other results |
| --- | --- | --- | --- | --- | --- | --- | --- | --- | --- | --- | --- | --- | --- |
| COc1ccc(Cl)c(C(F)(F)C(=O)O)c1 [Compound 1-62, 2-(2-Chloro-5-methoxyphenyl)-2,2-difluoroacetic acid] | 60% | 20% | 20% | 60% | 70% | 50% | 30% | 80% | 80% | 20% | 20% |  |  |
| Nc1ccc(Cl)c(C(F)(F)C(=O)O)c1 [Compound 1-63, 2-(5-Amino-2-chloro-phenyl)-2,2-difluoro-acetic acid] | 0% | 0% | 10% | 20% | 20% | 0% | 0% | 0% | 0% | 0% | 0% | 10% |  |
| Nc1c(Cl)cc(Cl)c(Cl)c1C(F)(F)C(=O)O [Compound 1-81, 2-(2-Amino-3,5,6-trichloro-phenyl)-2,2-difluoro-acetic acid] | 50% | 0% | 20% | 50% | 50% | 20% | 0% | 30% | 20% | 10% | 0% | 10% |  |
| COc1cccc(C(F)(F)C(=O)O)c1Cl [Compound 1-209, 2-(2-Chloro-3-methoxyphenyl)-2,2-difluoroacetic acid] | 90% | 10% |  | 80% | 80% | 60% | 0% | 70% | 60% | 80% | 0% | 10% |  |
| CSc1cccc(C(F)(F)C(=O)O)c1Cl [Compound 1-220, 2-(2-Chloro-3-methylsulfanyl-phenyl)-2,2-difluoro-acetic acid] | 70% | 10% |  | 70% | 70% | 80% | 0% | 50% | 50% | 70% | 10% | 0% |  |
| Nc1cc(Cl)cc(C(F)(F)C(=O)O)c1Cl [Compound 1-235, 2-(3-Amino-2,5-dichlorophenyl)-2,2-difluoroacetic acid] | 50% | 20% |  | 70% | 30% | 30% | 10% | 40% | 30% | 20% | 0% | 20% |  |
| Nc1ccc(Cl)c(C(F)(F)C(=O)O)c1Cl [Compound 1-236, 2-(3-Amino-2,6-dichloro-phenyl)-2,2-difluoro-acetic acid] | 10% | 10% | 0% | 30% | 30% | 0% | 0% | 20% | 0% | 0% |  | 0% |  |
| O=C(O)C(F)(F)c1cc(Cl)cc([N+](=O)[O-])c1Cl [Compound 1-238, 2-(2,5-Dichloro-3-nitrophenyl)-2,2-difluoroaceticacid] | 40% | 0% | 0% | 30% | 0% | 0% | 0% | 0% | 0% | 0% | 0% | 0% |  |
| Nc1c(Cl)cccc1C(F)(F)C(=O)O [Compound 1-252, 2-(2-Amino-3-chloro-phenyl)-2,2-difluoro-acetic acid] | 90% | 10% | 80% | 20% | 70% | 90% | 0% | 40% | 10% | 50% | 0% | 0% |  |
| N#Cc1c(Cl)cccc1C(F)(F)C(=O)O [Compound 1-262, 2-(3-Chloro-2-cyano-phenyl)-2,2-difluoro-acetic acid] | 100% | 20% | 80% | 90% | 70% | 90% | 0% | 90% | 100% | 90% | 40% | 0% |  |
| CCOC(=O)C(F)(F)c1c(F)ccc(F)c1O [Compound 3-297, Ethyl 2-(3,6-difluoro-2-hydroxyphenyl)-2,2-difluoroacetate] | 0% | 20% | 10% | 10% | 10% | 0% |  | 0% | 0% | 0% | 0% |  |  |
| Nc1ccc(Cl)cc1C(F)(F)C(=O)[O-].[Li+] [Compound 5-251, Lithium;2-(2-amino-5-chloro-phenyl)-2,2-difluoro-acetate] |  |  |  |  |  |  |  |  |  |  |  |  | damage to plant ABUTH (100=total damage; 0=no damage) ([1]; ABUTH): 20; damage to plant AMARE (100=total damage; 0=no damage) ([1]; AMARE): 40; damage to plant ECHCG (100=total damage; 0=no damage) ([1]; ECHCG): 0; damage to plant IPOHE (100=total damage; 0=no damage) ([1]; IPOHE): 20; damage to plant STEME (100=total damage; 0=no damage) ([1]; STEME): 20; damage to plant ZEAMX (100=total damage; 0=no damage) ([1]; ZEAMX): 0; evaluation (100=total damage to plant; 0=no damage to plant) ([2]; 1000 g/ha): 10; evaluation (100=total damage to plant; 0=no damage to plant) [4]: 20; evaluation (100=total damage to plant; 0=no damage to plant) ([5]; 1000 g/ha): 10; evaluation (100=total damage to plant; 0=no damage to plant) [6]: 0; evaluation (100=total damage to plant; 0=no damage to plant) [7]: 0 |
| COc1c(Cl)ccc(F)c1C(F)(F)C(=O)O [Compound 7-325, 2-(3-Chloro-6-fluoro-2-methoxyphenyl)-2,2-difluoroacetic acid] | 60% | 20% | 50% | 60% | 50% | 20% |  | 50% | 30% | 50% | 10% |  |  |
